“Also recorded” adds a separate entry of the source. Where a name gives a salt, the structure may show the parent alone.
Experiments:
[1] = molecular target: T1, neuronal nicotinic acetylcholine receptors (Rattus norvegicus, UniProt P09483+P12390); assay: [3H]-cytisine binding to neuronal nicotinic acetylcholine receptors, whole rat brain membranes; conditions: [3H]-cytisine 1.25 nM, whole rat brain membranes; read-out: [3H] CYT Ki
T1 construct: crude synaptic membrane preparations from whole rat brain; from tissue; host or cells: whole rat brain, crude synaptic membranes
In short: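 Crude synaptic membranes from whole rat brain (125-150 μg protein) incubated with test compound and 1.25 nM [3H]-cytisine for 60 min at 4 °C in Tris-Cl buffer pH 7.4 with Na/K/Mg/Ca salts. Filtration through PEI-soaked filters; nonspecific binding with 10 μM (−)-nicotine; values as percentage of total binding.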

[2] = molecular target: T2, peripheral ganglionic receptors (Homo sapiens, UniProt P30926+P32297); assay: 86Rb+ flux activation in IMR-32 human neuroblastoma cells; format: cell-based; conditions: 1 μM compound, % of maximum response to (S)-nicotine
T2 construct: Cells of the IMR-32 human neuroblastoma clonal cell line (ATCC, Rockville, Md.); host or cells: IMR-32 human neuroblastoma cells
Procedure: Protocol for the Determination of Ability of Nicotinic Acetylcholine Receptor Ligands to Activate Peripheral Ganglionic Receptors
Cells of the IMR-32 human neuroblastoma clonal cell line (ATCC, Rockville, Md.) were maintained in a log phase of growth according to established procedures. Experimental cells were seeded at a density of 500,000 cells/mL into a 24-well tissue culture dish. Plated cells were allowed to proliferate for at least 48 hours before loading with 2 μCi/mL of ^86Rb^+ (35 Ci/mmol) overnight at 37° C. The ^86Rb^+ efflux assays were performed according to previously published protocols (Lukas, R. J., J. Pharmacol. Exp. Ther., 265: 294-302, 1993) except serum-free Dulbecco's Modified Eagle's Medium was used during the ^86Rb^+ loading, rinsing, and agonist-induced efflux steps. Data reflect the activation of ^86Rb^+ flux at a concentration of 1 μM, and reflect the response as a percentage of the maximum response elicited by (S)-nicotine.

mice [3] = format: in vivo; conditions: mouse, i.p.
Procedure: Motor coordination was assessed using an accelerating rotarod apparatus (Omnitech Electronics, Inc., Columbus, Ohio). Locomotor activity was monitored under dim light in a 41×41 cm. open field using a photobeam activity system (San Diego Instruments, San Diego, Calif.). The mouse was placed on a 3.5 cm diameter rod which increased in speed from 0 to 40 rpm over 120 seconds. The time required for the mouse to fall from the rod was recorded with a maximum score of 120 seconds. Twenty-five min after receiving an i.p. injection, the mice were placed in the open field for 5 min. After removal from the open field (i.e., 30 min after injection), they were immediately tested on the rotarod. Body temperature was assessed using a probe inserted 3 cm into the rectum approximately 35 min after injection. (YSI Tele-Thermometer, Yellow Springs Instrument Co., Inc., Yellow Springs, Ohio). Diazepam (10.5 μmol/kg, i.p.) was used as a positive control.

mice [4] = assay: Mouse Hot Plate Paradigm; format: in vivo; conditions: ip, 0.5 h, i.p., 30 minutes prior to testing, 55° C., read-out: MED Hot plate model (μmol/kg, i.p.)
rats [5] = assay: Chung Model of Neuropathic Pain; format: in vivo; conditions: rat, 50% threshold to VonFrey hairs
rats [6] = assay: Chung Model of Neuropathic Pain following repeated dosing; format: in vivo; conditions: rat; for anti-allodynic effect following repeated dosing: in vivo, ip
Procedure: Animals were surgically prepared as described above for the Chung model. For assessment of each test compound, two treatment groups (6 animals each) were established. One group was injected (i.p.) with test compound twice daily for 5 days, and the other group was injected on the same schedule with saline. Responses to von Frey hairs were assessed as described above both before, and 15 minutes after, injection on the first 2 days and also on the 5th day. The saline-treatment group was given saline for the first 4 days and on the morning of the 5th day, but received a challenge of the test compound in the afternoon of the fifth day.

rats [7] = assay: Carrageenan paw edema model; format: in vivo; conditions: rat, i.p.
rats [8] = assay: Formalin Model of Persistent Pain; format: in vivo; conditions: rat, oral, 0.1-0.3 umol/kg, 15 minutes prior to formalin, second phase
rat spinal cord cultures = assay: Neuroprotection against substance P or glutamate toxicity in primary spinal cord cultures (LDH release); format: cell-based; conditions: rat spinal cord cultures
mice [9] = conditions: mouse, in vivo, ip
Procedure: Compounds were co-mixed in a syringe, and co-administered via the intraperitoneal route 30 min prior to testing in the mouse hot-plate paradigm as indicated above. Separate groups of animals (n=7-8/group) were used for each dose group.

[10] = molecular target: neuromuscular junction nicotinic acetylcholine receptor (Tetronarce californica, UniProt P02710+P02714+P02718); assay: biochemical; format: binding, Torpedo Californica
Chain of neuromuscular junction nicotinic acetylcholine receptor (P02714 18-506): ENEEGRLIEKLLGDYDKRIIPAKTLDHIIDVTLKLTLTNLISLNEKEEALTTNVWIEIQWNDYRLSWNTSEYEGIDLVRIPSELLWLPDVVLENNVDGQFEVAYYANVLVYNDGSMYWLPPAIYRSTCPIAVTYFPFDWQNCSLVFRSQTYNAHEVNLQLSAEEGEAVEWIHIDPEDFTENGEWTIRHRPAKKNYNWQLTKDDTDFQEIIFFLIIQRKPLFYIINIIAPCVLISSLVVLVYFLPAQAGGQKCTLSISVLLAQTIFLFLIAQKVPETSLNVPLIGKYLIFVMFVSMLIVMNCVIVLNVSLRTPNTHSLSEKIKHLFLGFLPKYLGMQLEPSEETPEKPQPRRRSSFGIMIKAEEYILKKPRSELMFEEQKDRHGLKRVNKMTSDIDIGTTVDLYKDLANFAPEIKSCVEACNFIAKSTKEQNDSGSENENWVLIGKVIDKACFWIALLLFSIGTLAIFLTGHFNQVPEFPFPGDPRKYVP
Chain of neuromuscular junction nicotinic acetylcholine receptor (P02710 25-461): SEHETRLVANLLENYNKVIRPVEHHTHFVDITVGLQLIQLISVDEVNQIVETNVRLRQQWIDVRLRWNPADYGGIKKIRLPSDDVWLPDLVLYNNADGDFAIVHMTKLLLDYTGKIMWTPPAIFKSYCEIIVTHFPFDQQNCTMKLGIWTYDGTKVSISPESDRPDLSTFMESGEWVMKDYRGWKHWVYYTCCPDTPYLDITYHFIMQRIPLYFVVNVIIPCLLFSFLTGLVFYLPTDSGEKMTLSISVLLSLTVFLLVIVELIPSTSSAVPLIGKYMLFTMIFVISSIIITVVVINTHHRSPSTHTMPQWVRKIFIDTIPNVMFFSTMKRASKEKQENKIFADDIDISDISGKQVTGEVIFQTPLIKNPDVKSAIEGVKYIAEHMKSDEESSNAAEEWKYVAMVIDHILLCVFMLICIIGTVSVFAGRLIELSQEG
Chain of neuromuscular junction nicotinic acetylcholine receptor (P02712 25-493, further chain): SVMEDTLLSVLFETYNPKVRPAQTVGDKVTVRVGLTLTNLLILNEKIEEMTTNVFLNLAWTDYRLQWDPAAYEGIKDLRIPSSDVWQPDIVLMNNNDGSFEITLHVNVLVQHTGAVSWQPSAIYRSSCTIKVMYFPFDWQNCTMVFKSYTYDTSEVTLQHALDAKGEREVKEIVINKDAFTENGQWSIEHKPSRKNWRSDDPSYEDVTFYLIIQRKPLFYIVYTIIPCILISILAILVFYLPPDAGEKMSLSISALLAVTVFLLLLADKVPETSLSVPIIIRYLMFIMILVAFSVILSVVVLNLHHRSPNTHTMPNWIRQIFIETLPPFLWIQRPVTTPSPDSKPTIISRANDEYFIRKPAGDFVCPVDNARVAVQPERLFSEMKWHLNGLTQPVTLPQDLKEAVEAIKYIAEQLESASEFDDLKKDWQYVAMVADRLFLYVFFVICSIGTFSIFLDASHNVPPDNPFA
Chain of neuromuscular junction nicotinic acetylcholine receptor (P02718 22-522): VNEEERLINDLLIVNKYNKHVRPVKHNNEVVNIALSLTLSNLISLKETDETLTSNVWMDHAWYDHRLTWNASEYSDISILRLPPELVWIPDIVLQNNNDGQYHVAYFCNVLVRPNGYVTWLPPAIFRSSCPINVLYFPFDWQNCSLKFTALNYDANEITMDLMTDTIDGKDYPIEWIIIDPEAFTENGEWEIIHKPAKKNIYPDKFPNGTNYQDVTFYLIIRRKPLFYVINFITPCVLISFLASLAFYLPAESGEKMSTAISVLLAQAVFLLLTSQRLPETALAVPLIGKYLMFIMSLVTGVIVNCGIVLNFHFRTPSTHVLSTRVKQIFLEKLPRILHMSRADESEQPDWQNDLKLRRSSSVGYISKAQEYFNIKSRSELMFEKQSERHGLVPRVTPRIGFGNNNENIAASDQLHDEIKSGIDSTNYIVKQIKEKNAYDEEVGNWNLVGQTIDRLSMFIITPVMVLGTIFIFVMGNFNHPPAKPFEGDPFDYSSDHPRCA

T2 sequence (P32297 32-505): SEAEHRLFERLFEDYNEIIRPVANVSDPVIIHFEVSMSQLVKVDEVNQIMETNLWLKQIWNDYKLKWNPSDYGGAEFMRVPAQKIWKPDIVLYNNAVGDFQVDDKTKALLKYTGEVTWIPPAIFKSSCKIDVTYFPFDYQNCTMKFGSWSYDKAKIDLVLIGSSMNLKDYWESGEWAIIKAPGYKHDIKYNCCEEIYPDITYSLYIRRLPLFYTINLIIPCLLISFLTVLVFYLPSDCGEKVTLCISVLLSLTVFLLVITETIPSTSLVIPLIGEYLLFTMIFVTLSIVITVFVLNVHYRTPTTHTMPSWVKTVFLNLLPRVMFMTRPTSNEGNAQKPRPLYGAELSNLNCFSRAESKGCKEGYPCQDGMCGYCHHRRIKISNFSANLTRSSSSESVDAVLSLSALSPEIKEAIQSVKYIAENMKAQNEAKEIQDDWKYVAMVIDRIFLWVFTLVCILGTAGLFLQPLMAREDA
T2 sequence (P30926 22-498): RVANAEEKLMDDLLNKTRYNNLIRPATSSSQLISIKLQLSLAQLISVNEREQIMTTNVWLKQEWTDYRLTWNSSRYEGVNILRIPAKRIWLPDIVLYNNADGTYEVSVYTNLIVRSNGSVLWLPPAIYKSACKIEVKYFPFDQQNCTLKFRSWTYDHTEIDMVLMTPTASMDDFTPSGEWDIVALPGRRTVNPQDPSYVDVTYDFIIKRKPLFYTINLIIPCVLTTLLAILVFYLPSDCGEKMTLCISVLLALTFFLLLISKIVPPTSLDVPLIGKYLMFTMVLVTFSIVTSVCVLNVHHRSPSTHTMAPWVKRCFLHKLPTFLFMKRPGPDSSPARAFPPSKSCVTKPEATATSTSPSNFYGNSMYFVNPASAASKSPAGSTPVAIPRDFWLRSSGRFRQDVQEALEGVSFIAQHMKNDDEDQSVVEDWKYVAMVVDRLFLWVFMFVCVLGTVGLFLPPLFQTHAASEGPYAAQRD
T1 sequence (P09483 31-630): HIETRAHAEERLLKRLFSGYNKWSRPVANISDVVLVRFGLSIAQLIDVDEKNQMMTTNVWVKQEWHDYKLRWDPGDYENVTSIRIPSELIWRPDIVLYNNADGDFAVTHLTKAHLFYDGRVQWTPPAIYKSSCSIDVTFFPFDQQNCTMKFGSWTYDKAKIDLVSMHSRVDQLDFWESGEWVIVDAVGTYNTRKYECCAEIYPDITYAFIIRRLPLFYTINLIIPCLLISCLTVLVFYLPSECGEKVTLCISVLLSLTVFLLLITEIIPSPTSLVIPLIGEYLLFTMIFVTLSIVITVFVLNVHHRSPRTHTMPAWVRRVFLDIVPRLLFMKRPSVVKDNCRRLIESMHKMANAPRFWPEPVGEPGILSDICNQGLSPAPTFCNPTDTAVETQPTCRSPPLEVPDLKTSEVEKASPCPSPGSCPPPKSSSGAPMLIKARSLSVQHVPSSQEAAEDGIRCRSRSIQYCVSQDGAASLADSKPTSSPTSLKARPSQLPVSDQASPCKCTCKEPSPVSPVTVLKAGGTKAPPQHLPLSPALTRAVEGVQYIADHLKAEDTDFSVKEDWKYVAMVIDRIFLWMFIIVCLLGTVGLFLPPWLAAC
T1 sequence (P12390 25-500): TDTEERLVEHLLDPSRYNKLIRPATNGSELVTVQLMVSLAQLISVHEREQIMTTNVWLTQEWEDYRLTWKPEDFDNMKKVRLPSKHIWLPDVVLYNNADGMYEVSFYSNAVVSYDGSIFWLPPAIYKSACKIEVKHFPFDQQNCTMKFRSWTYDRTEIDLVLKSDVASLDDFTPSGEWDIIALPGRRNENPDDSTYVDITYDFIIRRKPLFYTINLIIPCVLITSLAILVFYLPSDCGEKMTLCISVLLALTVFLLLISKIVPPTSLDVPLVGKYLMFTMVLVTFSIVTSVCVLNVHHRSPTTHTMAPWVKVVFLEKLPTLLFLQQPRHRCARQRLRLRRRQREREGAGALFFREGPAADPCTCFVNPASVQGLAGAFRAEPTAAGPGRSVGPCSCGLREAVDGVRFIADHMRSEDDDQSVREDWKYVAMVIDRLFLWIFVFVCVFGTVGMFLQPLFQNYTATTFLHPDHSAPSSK

Row | Compound | Ki [1] [nM] | IMR-32 % maximal nicotine response at 1 μM Cmpd conc'n [2] [%] | dose showing rotarod impairments (mice [3]; in 2 of 3 experiments) [µmol/kg] | minimal effective dose (mice [4]) [µmol/kg] | MED Chung model (μmol/kg, i.p.) (rats [5]) [µmol/kg] | dose at which a rotarod effect was reached (mice [3]) | anti-allodynic effect following repeated dosing (rats [6]) | ED30 reduction of carrageenan-induced paw edema (rats [7]) [µmol/kg] | efficacy to reduce paw edema compared with dexamethasone (rats [7]; hydrochloride) | antinociceptive effects in the Formalin Model (rats [8]) | protection against SP- and Glu-induced neurotoxicity (rat spinal cord cultures; SP 30 μM or Glu 300 μM, hydrochloride) | EC50 (rat spinal cord cultures; SP and Glu-induced neurotoxicity) [nM] | anti-allodynic effects during each test session (rats [6]; 0.3 μmol/kg, i.p., b.i.d., 5 days) | antinociceptive activity combined with effective doses of morphine (mice [9]) | antinociceptive activity combined with subthreshold doses of morphine (mice [9]) | antinociceptive effects when coadministered with morphine (mice [9]) | Ki [10] [nM] | reduced affinity for the neuromuscular junction nicotinic acetylcholine receptor [10] [fold]
1 | Fc1ccc(OC[C@@H]2CCN2)cn1 [Example 9, 5-(2S)-Azetidinylmethyloxy)-2-fluoropyridine dibenzoate] | 0.16 | 103 | 0.62 | 0.62 |  |  |  |  |  |  |  |  |  |  |  |  |  | 
2 | Fc1ccc(OCC2CCN2)cn1 [Example 8, 5-(2R)-Azetidinylmethyloxy)-2-fluoropyridine dibenzoate] | 0.06 | 46 |  | 1.9 | 0.62 | 19 |  |  |  |  |  |  |  |  |  |  |  | 
3 | CN1CC[C@]23c4c5ccc(O)c4O[C@H]2[C@@H](O)C=C[C@H]3[C@H]1C5 [morphine, reference compound] |  |  |  |  |  |  | significantly reduced |  |  |  |  |  |  |  |  |  |  | 
4 | Clc1ccc(OC[C@H]2CCN2)cn1 [Example 4, 5-((2R)-Azetidinylmethyloxy)-2-chloropyridine hydrochloride] | 0.05 | 97 |  | 0.62 | 0.3 |  | does not decrease following repeated dosing | 0.21 | as effective as dexamethansone; also recorded: as efficacious as dexamethasone | produced significant antinociceptive effects | protects against SP-induced neurotoxicity; also recorded: reduces both SP and Glu-induced neurotoxicity | 10000 | Significant anti-allodynic effects | enhanced antinociceptive activity | can produce effective antinociceptive activity | produced effective antinociceptive effects | 16600 | 12.8

From patent US6403575B1, “3-Pyridyl enantiomers and their use as analgesics” (Abbott Laboratories, priority 1996, dated 2002)
